This test addresses T1, TLR9 (Homo sapiens, UniProt Q9NR96).
T1 sequence (Q9NR96 26-1032): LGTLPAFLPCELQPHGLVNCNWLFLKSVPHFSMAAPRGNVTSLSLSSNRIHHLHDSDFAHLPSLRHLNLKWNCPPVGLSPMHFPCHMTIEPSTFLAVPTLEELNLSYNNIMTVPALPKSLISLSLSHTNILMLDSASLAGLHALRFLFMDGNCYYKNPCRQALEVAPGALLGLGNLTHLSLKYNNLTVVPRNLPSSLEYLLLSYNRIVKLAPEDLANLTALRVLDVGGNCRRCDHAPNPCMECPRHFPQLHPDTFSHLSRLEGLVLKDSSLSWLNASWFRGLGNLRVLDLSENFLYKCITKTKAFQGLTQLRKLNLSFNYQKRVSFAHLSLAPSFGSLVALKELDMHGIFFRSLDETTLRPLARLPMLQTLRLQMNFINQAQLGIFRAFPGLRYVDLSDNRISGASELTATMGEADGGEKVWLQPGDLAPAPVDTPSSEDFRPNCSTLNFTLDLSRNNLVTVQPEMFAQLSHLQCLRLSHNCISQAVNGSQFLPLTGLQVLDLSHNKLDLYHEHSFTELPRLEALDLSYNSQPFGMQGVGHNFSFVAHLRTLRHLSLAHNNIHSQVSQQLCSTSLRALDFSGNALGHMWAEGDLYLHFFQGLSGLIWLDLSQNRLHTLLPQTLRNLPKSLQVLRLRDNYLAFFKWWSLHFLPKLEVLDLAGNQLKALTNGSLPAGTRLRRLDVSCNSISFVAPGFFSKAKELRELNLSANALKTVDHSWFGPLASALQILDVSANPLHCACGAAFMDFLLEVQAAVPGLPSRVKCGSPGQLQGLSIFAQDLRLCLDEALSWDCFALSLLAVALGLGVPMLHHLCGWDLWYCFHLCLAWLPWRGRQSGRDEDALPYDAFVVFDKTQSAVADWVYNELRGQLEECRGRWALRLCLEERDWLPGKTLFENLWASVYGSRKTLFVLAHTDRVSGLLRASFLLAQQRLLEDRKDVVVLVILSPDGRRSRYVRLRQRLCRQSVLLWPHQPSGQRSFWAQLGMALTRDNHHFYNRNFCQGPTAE
The experiment in a line: HEK293-Blue-hTLR-9 cells assay (SEAP reporter, ODN2006 stimulation). It counts as cell-based. Details: host or cells: HEK293 (HEK-Blue hTLR9). The settings on record: HEK293-Blue-hTLR9 cells, ODN2006, 20 hrs; read-out: HEK/hTLR9 IC50. As for the experimental part:
The following tests were carried out in order to determine the activity of the compounds of formula (I) and (Ia) in HEK293-Blue-hTLR-7/8/9 cells assay.
A stable HEK293-Blue-hTLR-9 cell line was purchased from InvivoGen (Cat. #: hkb-htlr9, San Diego, California, USA). These cells were originally designed for studying the stimulation of human TLR9 by monitoring the activation of NF-κB. A SEAP (secreted embryonic alkaline phosphatase) reporter gene was placed under the control of the IFN-β minimal promoter fused to five NF-κB and AP-1-binding sites. The SEAP was induced by activating NF-κB and AP-1 via stimulating HEK-Blue hTLR9 cells with TLR9 ligands. Therefore the reporter expression was declined by TLR9 antagonist under the stimulation of a ligand, such as ODN2006 (Cat. #: tlrl-2006-1, Invivogen, San Diego, California, USA), for incubation of 20 hrs. The cell culture supernatant SEAP reporter activity was determined using QUANTI-Blue™ kit (Cat. #: rep-qb1, Invivogen, San Diego, California, USA) at a wavelength of 640 nm, a detection medium that turns purple or blue in the presence of alkaline phosphatase.
HEK293-Blue-hTLR9 cells were incubated at a density of 250,000-450,000 cells/mL in a volume of 170 μL in a 96-well plate in Dulbecco's Modified Eagle's medium (DMEM) containing 4.5 g/L glucose, 50 U/mL penicillin, […], […], 2 mM L-glutamine, 10% (v/v) heat-inactivated fetal bovine serum with addition of 20 μL test compound in a serial dilution in the presence of final DMSO at 1% and 10 μL of 20 uM ODN2006 in above DMEM, perform incubation under 37° C. in a CO2 incubator for 20 hrs. Then 20 μL of the supernatant from each well was incubated with 180 μL Quanti-blue substrate solution at 37° C. for 2 h and the absorbance was read at 620˜655 nm using a spectrophotometer.
The signaling pathway that TLR9 activation leads to downstream NF-κB activation has been widely accepted, and therefore similar reporter assay was modified for evaluating TLR9 antagonist.
With `C[C@H]1CN(c2ccnc3c2cnn3C)Cc2ccc(N3CC4CNC[C@H]4C3=O)cc21` (relative stereo) [Example 17, cis-5-[(4R)-4-methyl-2-(1-methylpyrazolo[3,4-b]pyridin-4-yl)-3,4-dihydro-1H-isoquinolin-6-yl]-1,2,3,3a,6,6a-hexahydropyrrolo[3,4-c]pyrrol-4-one], the IC50 was determined as 217 nM. `C[C@H]1CN(c2ccnc3c2cnn3C)Cc2ccc(N3C[C@]4(CCNC4)CC3=O)cc21` (single isomer, unassigned) [Example 54]: the IC50 stood at 334 nM. Under `C[C@H]1CN(c2ccnc3c2cnn3C)Cc2ccc(N3C[C@H]4CCNC[C@H]4C3=O)cc21` (single isomer, unassigned) [Example 56] stands 254 nM; under `C[C@H]1CN(c2ccnc3c2cnn3C)Cc2ccc(N3C[C@@H]4CCNC[C@@H]4C3=O)cc21` (single isomer, unassigned) [Example 57], 226 nM. The same measure for `CC1CN(c2ccnc3c2cnn3C)Cc2ccc(N3CCC4(CCNCC4)CC3)cc21` (stereo not drawn) [Example 4, 3-[4-methyl-2-(1-methylpyrazolo[3,4-b]pyridin-4-yl)-3,4-dihydro-1H-isoquinolin-6-yl]-3,9-diazaspiro[5.5]undecane]: 275 nM.

`Cc1cc(N2Cc3ccc(N4CCC5(CCNCC5)CC4)cc3C(C)C2)c2cnn(C)c2n1` (stereo not drawn) [Example 5, 3-[2-(1,6-dimethylpyrazolo[3,4-b]pyridin-4-yl)-4-methyl-3,4-dihydro-1H-isoquinolin-6-yl]-3,9-diazaspiro[5.5]undecane]: the IC50 amounted to 123 nM.

As for `Cn1ncc2c(N3Cc4ccc(N5CCC6(CCNCC6)CC5)cc4C(C)(C)C3)ccnc21` [Example 6, 3-[4,4-dimethyl-2-(1-methylpyrazolo[3,4-b]pyridin-4-yl)-1,3-dihydroisoquinolin-6-yl]-3,9-diazaspiro[5.5]undecane], the IC50 was 112 nM.

For `C[C@H]1CN(c2ccnc3c2cnn3C)Cc2ccc(N3CCC(N4CCNCC4)CC3)cc21` [Example 10, (4R)-4-methyl-2-(1-methylpyrazolo[3,4-b]pyridin-4-yl)-6-(4-piperazin-1-yl-1-piperidyl)-3,4-dihydro-1H-isoquinoline], the IC50 was 58 nM.

In the case of `CO[C@@H]1CN(C2CCN(c3ccc4c(c3)[C@@H](C)CN(c3ccnc5c3cnn5C)C4)CC2)C[C@H]1N` [Example 11, (3R,4R)-4-methoxy-1-[1-[(4R)-4-methyl-2-(1-methylpyrazolo[3,4-b]pyridin-4-yl)-3,4-dihydro-1H-isoquinolin-6-yl]-4-piperidyl]pyrrolidin-3-amine], the IC50 is 63 nM.

On to `C[C@H]1CN(c2ccnc3c2cnn3C)Cc2ccc(N3CCN(C(=O)C4CNCCO4)CC3)cc21` (stereo partly drawn) [Example 12, morpholin-2-yl-[4-[(4R)-4-methyl-2-(1-methylpyrazolo[3,4-b]pyridin-4-yl)-3,4-dihydro-1H-isoquinolin-6-yl]piperazin-1-yl]methanone], for which the IC50 turned out to be 298 nM. In the case of `C[C@H]1CN(c2ccnc3c2cnn3C)Cc2ccc(N3C[C@H]4CNCCN4C3=O)cc21` [Example 24, (8aR)-2-[(4R)-4-methyl-2-(1-methylpyrazolo[3,4-b]pyridin-4-yl)-3,4-dihydro-1H-isoquinolin-6-yl]-1,5,6,7,8,8a-hexahydroimidazo[1,5-a]pyrazin-3-one], the IC50 came to 311 nM. Regarding `C[C@H]1CN(c2ccnc3c2cnn3C)Cc2ccc(N3C[C@@H]4CNCCN4C3=O)cc21` [Example 25, (8aS)-2-[(4R)-4-methyl-2-(1-methylpyrazolo[3,4-b]pyridin-4-yl)-3,4-dihydro-1H-isoquinolin-6-yl]-1,5,6,7,8,8a-hexahydroimidazo[1,5-a]pyrazin-3-one], the IC50 was 291 nM. Turning to `Cc1cc(N2Cc3ccc(OC[C@H]4CNCCN4)cc3[C@@H](C)C2)c2cnn(C)c2n1` [Example 30, (4R)-2-(1,6-dimethylpyrazolo[3,4-b]pyridin-4-yl)-4-methyl-6-[[(2R)-piperazin-2-yl]methoxy]-3,4-dihydro-1H-isoquinoline], the IC50 was 88 nM. The same measure for `C[C@H]1CN(c2ccnc3c2cnn3C)Cc2ccc(N3CCN(S(=O)(=O)C4CCNC4)CC3)cc21` (stereo partly drawn) [Example 33, (4R)-4-methyl-2-(1-methylpyrazolo[3,4-b]pyridin-4-yl)-6-(4-pyrrolidin-3-ylsulfonylpiperazin-1-yl)-3,4-dihydro-1H-isoquinoline]: 326 nM. Take `C[C@H]1CN(c2ccnc3c2cnn3C)Cc2ccc(OC[C@@H]3CNCCN3C)cc21` [Example 44, (4R)-4-methyl-2-(1-methylpyrazolo[3,4-b]pyridin-4-yl)-6-[[(2S)-1-methylpiperazin-2-yl]methoxy]-3,4-dihydro-1H-isoquinoline]: the IC50 came out at 234 nM. The same measure for `C[C@H]1CN(c2ccnc3c2cnn3C)Cc2ccc(N3CCNC(CO)C3)cc21` (stereo partly drawn) [Example 49, [4-[(4R)-4-methyl-2-(1-methylpyrazolo[3,4-b]pyridin-4-yl)-3,4-dihydro-1H-isoquinolin-6-yl]piperazin-2-yl]methanol]: 199 nM; for `Cc1cc(N2Cc3ccc(N4CCC(N(C)C)CC4)nc3[C@@H](C)C2)c2cnn(C)c2n1` [Example 60, N,N-dimethyl-1-[(8S)-6-(1,6-dimethylpyrazolo[3,4-b]pyridin-4-yl)-8-methyl-7,8-dihydro-5H-1,6-naphthyridin-2-yl]piperidin-4-amine]: 104 nM. Take `Cc1cc(N2Cc3ccc(N4CCC(O)(CN(C)C)CC4)nc3[C@@H](C)C2)c2cnn(C)c2n1` [Example 61, 4-[(dimethylamino)methyl]-1-[(8S)-6-(1,6-dimethylpyrazolo[3,4-b]pyridin-4-yl)-8-methyl-7,8-dihydro-5H-1,6-naphthyridin-2-yl]piperidin-4-ol]: the IC50 stood at 129 nM.

As to `CO[C@H]1CN(c2ccc3c(n2)[C@@H](C)CN(c2cc(C)nc4c2cnn4C)C3)CC[C@@H]1N` [Example 65, (3S,4S)-3-methoxy-1-[(8S)-6-(1,6-dimethylpyrazolo[3,4-b]pyridin-4-yl)-8-methyl-7,8-dihydro-5H-1,6-naphthyridin-2-yl]piperidin-4-amine], the IC50 was determined as 106 nM. The same measure for `Cc1cc(N2Cc3cnc(N4CCNC5(CC5)C4)cc3[C@@H](C)C2)c2cnn(C)c2n1` [Example 75, (4R)-6-(4,7-diazaspiro[2.5]octan-7-yl)-2-(1,6-dimethylpyrazolo[3,4-b]pyridin-4-yl)-4-methyl-3,4-dihydro-1H-2,7-naphthyridine]: 115 nM. The same measure for `COC[C@H]1CN(c2cc3c(cn2)CN(c2cc(C)nc4c2cnn4C)C[C@@H]3C)CCN1` [Example 81, (4R)-2-(1,6-dimethylpyrazolo[3,4-b]pyridin-4-yl)-4-methyl-6-[(3R)-3-(methoxymethyl)piperazin-1-yl]-3,4-dihydro-1H-2,7-naphthyridine]: 218 nM.
